Source: ChEMBL document CHEMBL1158411, “Second generation of BACE-1 inhibitors part 3: Towards non hydroxyethylamine transition state mimetics” (Bioorg Med Chem Lett, 2009)

What was measured:
[1] = molecular target: Cathepsin D (Homo sapiens, UniProt P07339); test: Inhibition of cathepsin-D
[2] = molecular target: T1, Beta-secretase 1 (Homo sapiens, UniProt P56817); test: Inhibition of BACE1
[3] = molecular target: T1, Beta-secretase 1; test: Inhibition of BACE1 in human SHSY5Y cells expressing wild type APP assessed as inhibition of intracellular amyloid beta-40 secretion; assay type: cell-based, SH-SY5Y
[4] = molecular target: T2, Beta-secretase 2 (Homo sapiens, UniProt Q9Y5Z0); test: Inhibition of BACE2
T2 sequence (Q9Y5Z0 whole entry): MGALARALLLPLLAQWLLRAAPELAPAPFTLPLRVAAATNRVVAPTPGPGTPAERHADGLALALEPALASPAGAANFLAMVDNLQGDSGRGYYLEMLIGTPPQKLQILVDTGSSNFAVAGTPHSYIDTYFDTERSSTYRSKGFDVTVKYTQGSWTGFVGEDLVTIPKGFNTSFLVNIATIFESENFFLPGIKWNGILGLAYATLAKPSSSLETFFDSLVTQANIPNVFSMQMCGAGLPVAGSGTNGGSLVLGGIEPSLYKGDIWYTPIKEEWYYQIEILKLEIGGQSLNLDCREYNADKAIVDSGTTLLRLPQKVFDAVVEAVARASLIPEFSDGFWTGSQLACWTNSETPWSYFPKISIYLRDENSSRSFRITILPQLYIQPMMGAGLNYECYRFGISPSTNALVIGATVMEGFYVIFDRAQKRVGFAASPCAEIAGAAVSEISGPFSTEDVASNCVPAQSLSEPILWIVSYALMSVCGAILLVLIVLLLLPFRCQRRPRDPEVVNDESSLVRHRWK

[5] = Lipophilicity, log D at pH 7.4; settings: buffer
[6] = Volume of distribution in dog at 1 mg/kg/hr, iv; assay type: ADME, organism-based, Canis lupus familiaris; design: route intravenous; settings: in vivo
[7] = Cmax in rat at 10 mg/kg; assay type: ADME, organism-based; design: dose 10 mg/kg; settings: in vivo
[8] = Blood clearance in dog at 1 mg/kg/hr, iv; assay type: ADME, organism-based, Canis lupus familiaris; design: route intravenous
[9] = system: Brain; test: Steady sate drug level in brain of wild type mouse expressing mdr1a/b by HPLC analysis; assay type: ADME, tissue-based; settings: in vivo
[10] = Bioavailability in rat; assay type: ADME, organism-based; settings: in vivo
[11] = Volume of distribution in rat at 1 mg/kg/hr, iv; assay type: ADME, organism-based; design: route intravenous; settings: in vivo
[12] = Half life in dog at 1 mg/kg/hr, iv; assay type: ADME, organism-based, Canis lupus familiaris; design: route intravenous; settings: in vivo
[13] = Ratio of steady sate drug level in brain to blood of wild type mouse expressing mdr1a/b; assay type: ADME, tissue-based
[14] = Bioavailability in dog; assay type: ADME, organism-based, Canis lupus familiaris; settings: in vivo
[15] = system: Blood; test: Steady sate drug level in blood of wild type mouse expressing mdr1a/b by HPLC analysis; assay type: ADME, tissue-based
[16] = Ratio of steady sate drug level in brain to blood of mdr1a/b knockout mouse; assay type: ADME, tissue-based
[17] = Blood clearance in rat at 1 mg/kg/hr, iv; assay type: ADME, organism-based; design: route intravenous
[18] = Blood clearance in mdr1a/b knockout mouse by HPLC analysis; assay type: ADME, organism-based
[19] = Cmax in dog at 10 mg/kg; assay type: ADME, organism-based, Canis lupus familiaris; design: dose 10 mg/kg; settings: in vivo
[20] = Half life in rat at 1 mg/kg/hr, iv; assay type: ADME, organism-based; design: route intravenous; settings: in vivo
[21] = system: Brain; test: Steady sate drug level in brain of mdr1a/b knockout mouse by HPLC analysis; assay type: ADME, tissue-based; settings: in vivo, read-out: Css
[22] = system: Blood; test: Steady sate drug level in blood of mdr1a/b knockout mouse by HPLC analysis; assay type: ADME, tissue-based; settings: read-out: Css
[23] = Blood clearance in wild type mouse expressing mdr1a/b by HPLC analysis; assay type: ADME, organism-based

Sequence of Cathepsin D (P07339 65-162 limits assumed): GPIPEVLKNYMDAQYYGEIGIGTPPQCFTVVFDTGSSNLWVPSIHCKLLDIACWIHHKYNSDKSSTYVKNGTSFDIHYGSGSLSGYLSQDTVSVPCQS
Sequence of Cathepsin D (P07339 169-412 limits assumed): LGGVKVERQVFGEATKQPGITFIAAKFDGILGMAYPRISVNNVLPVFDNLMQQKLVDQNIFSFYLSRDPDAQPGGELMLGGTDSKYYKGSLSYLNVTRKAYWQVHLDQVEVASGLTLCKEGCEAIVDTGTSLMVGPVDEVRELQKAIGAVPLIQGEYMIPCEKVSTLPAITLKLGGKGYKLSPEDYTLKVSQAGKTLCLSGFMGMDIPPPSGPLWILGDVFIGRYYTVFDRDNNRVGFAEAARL
T1 sequence (P56817 whole entry): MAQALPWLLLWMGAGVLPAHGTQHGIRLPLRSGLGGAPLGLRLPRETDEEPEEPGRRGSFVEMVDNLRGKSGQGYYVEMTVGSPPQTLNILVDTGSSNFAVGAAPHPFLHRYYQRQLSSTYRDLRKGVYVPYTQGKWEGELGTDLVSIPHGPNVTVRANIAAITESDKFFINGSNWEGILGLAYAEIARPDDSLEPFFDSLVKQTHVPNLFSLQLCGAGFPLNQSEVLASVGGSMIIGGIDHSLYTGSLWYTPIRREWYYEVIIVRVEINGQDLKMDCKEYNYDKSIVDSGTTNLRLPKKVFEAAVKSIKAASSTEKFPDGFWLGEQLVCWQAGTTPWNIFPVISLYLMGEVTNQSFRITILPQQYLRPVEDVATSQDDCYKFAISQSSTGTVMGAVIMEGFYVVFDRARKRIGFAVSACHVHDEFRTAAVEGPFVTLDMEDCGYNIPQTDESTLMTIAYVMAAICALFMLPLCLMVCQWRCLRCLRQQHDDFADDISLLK

SMILES | IC50 [1] | IC50 [2] | IC50 [3] | IC50 [4] | logD [5] | also measured
C#CCNC[C@@H](O)[C@H](Cc1ccccc1)NC(=O)c1cc2c3c(c1)c(CC)cn3CCS(=O)(=O)N2C | 75500 nM | 73 nM | 118 nM | 3100 nM | – | –
CCc1cn2c3c(cc(C(=O)N[C@@H](Cc4ccccc4)[C@H](O)CNC4CCOCC4)cc13)N(C)S(=O)(=O)CC2 | 60 nM | 9 nM | 90 nM | 210 nM | 1.31 | –
C#CCNC[C@@H](O)[C@H](Cc1ccccc1)NC(=O)c1cc2c3c(cn(CC)c3c1)CCS(=O)(=O)N2C | 34600 nM | 11 nM | 26 nM | 1490 nM | – | –
CCCNC[C@@H](O)[C@H](Cc1ccccc1)NC(=O)c1cc2c3c(cn(CC)c3c1)CCS(=O)(=O)N2C | – | 8 nM | 29 nM | – | – | –
CCn1cc2c3c(cc(C(=O)N[C@@H](Cc4ccccc4)[C@H](O)CNCCF)cc31)N(C)S(=O)(=O)CC2 | – | 40 nM | 245 nM | – | – | –
CCn1cc2c3c(cc(C(=O)N[C@@H](Cc4ccccc4)[C@H](O)CNCCC(F)(F)F)cc31)N(C)S(=O)(=O)CC2 | 570 nM | – | – | 75 nM | 2.59 | Vd [6]: 4.8 L/kg; Cmax [7]: 88 nM; clearance [8]: 14 mL/min/kg; Css [9]: 40 nM; bioavailability [10]: 13%; Vd [11]: 11 L/kg; half-life [12]: 6.8 h; Kp [13]: 0.1; bioavailability [14]: 52%; Css [15]: 381 nM; Kp [16]: 0.99; clearance [17]: 57 mL/min/kg; clearance [18]: 94 mL/min/kg; Cmax [19]: 3590 nM; half-life [20]: 3.3 h; concentration [21]: 335 nM; concentration [22]: 339 nM; clearance [23]: 85 mL/min/kg
CCNC[C@@H](O)[C@H](Cc1ccccc1)NC(=O)c1cc2c3c(cn(CC)c3c1)CCS(=O)(=O)N2C | 19500 nM | 23 nM | 73 nM | 2170 nM | 0.07 | –
CCn1cc2c3c(cc(C(=O)N[C@@H](Cc4ccccc4)[C@H](O)CNCC(F)F)cc31)N(C)S(=O)(=O)CC2 | – | 20 nM | 51 nM | – | – | –
CCc1cn2c3c(cc(C(=O)N[C@@H](Cc4ccccc4)[C@H](O)CNC4CC4)cc13)N(C)S(=O)(=O)CC2 | – | 11 nM | – | – | 2.17 | Css [9]: 61 nM; bioavailability [10]: 17%; Kp [13]: 0.13; Css [15]: 490 nM; Kp [16]: 2.41; clearance [18]: 62 mL/min/kg; concentration [21]: 989 nM; concentration [22]: 397 nM; clearance [23]: 72 mL/min/kg
CCc1cn2c3c(cc(C(=O)N[C@@H](Cc4ccccc4)[C@H](O)CNC4CC4)cc13)OS(=O)(=O)CC2 | 2970 nM | 250 nM | – | 1150 nM | – | –
CCc1cn2c3c(cc(C(=O)N[C@@H](Cc4ccccc4)[C@H](O)CNCCF)cc13)N(C)S(=O)(=O)CC2 | – | 50 nM | 209 nM | – | – | –
CCc1cn2c3c(cc(C(=O)N[C@@H](Cc4ccccc4)[C@H](O)CNCc4cccc(C(F)(F)F)c4)cc13)OS(=O)(=O)CC2 | 2160 nM | 8 nM | – | 260 nM | – | –
CCn1cc2c3c(cc(C(=O)N[C@@H](Cc4ccccc4)[C@H](O)CNCC(F)(F)F)cc31)N(C)S(=O)(=O)CC2 | – | 79 nM | 2110 nM | – | – | –
CCc1cn2c3c(cc(C(=O)N[C@@H](Cc4ccccc4)[C@H](O)CNCC4CCOCC4)cc13)OS(=O)(=O)CC2 | 130 nM | 86 nM | – | 450 nM | – | –
CCn1cc2c3c(cc(C(=O)N[C@@H](Cc4ccccc4)[C@H](O)CNC4CC4)cc31)N(C)S(=O)(=O)CC2 | 6790 nM | – | – | 370 nM | 1.79 | –
C#CCNC[C@@H](O)[C@H](Cc1ccccc1)NC(=O)c1cc2c3c(c1)c(CC)cn3CCS(=O)(=O)O2 | 15100 nM | 360 nM | – | 3200 nM | – | –
CC[C@@H](C)NC[C@@H](O)[C@H](Cc1ccccc1)NC(=O)c1cc2c3c(cn(CC)c3c1)CCS(=O)(=O)N2C | 1190 nM | 10 nM | 64 nM | 420 nM | – | –
CCc1cn2c3c(cc(C(=O)N[C@@H](Cc4ccccc4)[C@H](O)CN[C@H](C)CC)cc13)N(C)S(=O)(=O)CC2 | 5430 nM | 22 nM | 144 nM | 430 nM | 1.52 | –
CCn1cc2c3c(cc(C(=O)N[C@@H](Cc4ccccc4)C(=O)CNC4CCOCC4)cc31)N(C)S(=O)(=O)CC2 | – | – | 48 nM | – | – | –
CCNC[C@@H](O)[C@H](Cc1ccccc1)NC(=O)c1cc2c3c(c1)c(CC)cn3CCS(=O)(=O)N2C | 36300 nM | 48 nM | 262 nM | 1140 nM | – | –
CCn1cc2c3c(cc(C(=O)N[C@@H](Cc4ccccc4)[C@H](O)CNc4ccccc4)cc31)N(C)S(=O)(=O)CC2 | – | 5 nM | 739 nM | – | – | –
CCc1cn2c3c(cc(C(=O)N[C@@H](Cc4ccccc4)[C@H](O)CNCCC(F)(F)F)cc13)N(C)S(=O)(=O)CC2 | 890 nM | 7 nM | 8 nM | 28 nM | 2.8 | –
CCn1cc2c3c(cc(C(=O)N[C@@H](Cc4ccccc4)[C@H](O)CNCC(F)(F)C(F)(F)F)cc31)N(C)S(=O)(=O)CC2 | – | 32 nM | 4430 nM | – | – | –
CCn1cc2c3c(cc(C(=O)N[C@@H](Cc4ccccc4)[C@H](O)CNC4CCOCC4)cc31)N(C)S(=O)(=O)CC2 | 2110 nM | 5 nM | 27 nM | 590 nM | 0.9 | –
